“And” between values parts separate entries of the source, which are not always exact repeats. Identical values can stand only once.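 Results reflect a 48-hour exposure of cells in 96-well plates to compound at five concentrations. The concentration for 50% growth inhibition is given as GI50. TGI marks complete inhibition of growth.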

Some test systems named below: SF-295 CNS; K-562 leukemia; PC-3 prostate; DU-145 prostate; RPMI-8226 leukemia; HCT-116 colon; MOLT-4 leukemia; UACC-62 melanoma; A498 renal; MALME-3M melanoma.
Experiment in all cases: growth of human tumour cells (NCI), 48 h

For the compound `Cc1ccc2c(c1)C(=O)c1c-2n(CCCN=[N+]=[N-])c(=O)c2cc([N+](=O)[O-])ccc12`, the GI50 with SF-295 CNS is over 100 µM; in the experiment with K-562 leukemia, 39.4 µM; in the experiment on PC-3 prostate it was 33.4 µM; with DU-145 prostate, over 100 µM; in the experiment on RPMI-8226 leukemia, 21.3 µM; with HCT-116 colon it was 20.5 µM. For the same compound, the GI50 in the experiment on MOLT-4 leukemia was 17.8 µM; in the experiment with UACC-62 melanoma, 30.3 µM; in the experiment with A498 renal it was over 100 µM. The TGI in the experiment on SF-295 CNS, in the experiment on K-562 leukemia, with PC-3 prostate, with DU-145 prostate, in the experiment with RPMI-8226 leukemia and in the experiment with HCT-116 colon was over 100 µM each time. Moreover, the TGI in the experiment on MOLT-4 leukemia is 70.4 µM; in the experiment with UACC-62 melanoma, over 100 µM; in the experiment with A498 renal, over 100 µM.
In the case of `CCOC(=O)/C(C#N)=C/Nc1ccc(-c2nc3ccccc3[nH]2)cc1`, the GI50 was 27.4 µM in the experiment on SF-295 CNS; 25.1 µM with K-562 leukemia; 29.8 µM with PC-3 prostate; 66.6 µM with DU-145 prostate; 19.7 µM in the experiment with RPMI-8226 leukemia; over 100 µM in the experiment with HCT-116 colon. Besides, the GI50 in the experiment on MOLT-4 leukemia is 35.1 µM; in the experiment with UACC-62 melanoma, 18.7 µM. Moreover, the TGI was 76.8 µM in the experiment on SF-295 CNS; 98.6 µM with K-562 leukemia; over 100 µM in the experiment with PC-3 prostate; over 100 µM in the experiment on DU-145 prostate; over 100 µM in the experiment on RPMI-8226 leukemia; over 100 µM with HCT-116 colon. Moreover, the TGI with MOLT-4 leukemia is over 100 µM; in the experiment on UACC-62 melanoma, 62.4 µM.
Regarding `COc1cc(C2c3cc4c(cc3[C@@H](Nc3ccc(N)cc3)C3COC(=O)[C@H]23)OCO4)cc(OC)c1O` (some centres undefined), the GI50 in the experiment with SF-295 CNS is 0.502 µM; with MALME-3M melanoma, 0.849 µM; in the experiment with HCT-116 colon, 0.973 µM; in the experiment with MOLT-4 leukemia, 0.175 µM and 0.0292 µM; in the experiment on UACC-62 melanoma, 0.711 µM; in the experiment on A498 renal it was 0.781 µM. The TGI was found to be 4.76 µM with SF-295 CNS; 46.3 µM in the experiment on K-562 leukemia; 16.5 µM with PC-3 prostate; 19.7 µM with MALME-3M melanoma; 12 µM in the experiment with RPMI-8226 leukemia; 23 µM in the experiment with HCT-116 colon. Besides, the TGI is 0.8 µM and 0.825 µM in the experiment with MOLT-4 leukemia; 11.3 µM in the experiment on UACC-62 melanoma; 6.39 µM with A498 renal.
As to `COc1cc(-c2nn(-c3ccc(NC(=O)c4cc(Cl)cc(Cl)c4)cc3)cc2-c2ccncc2)ccc1Cl`, the GI50 in the experiment with K-562 leukemia is 2.91 µM; with PC-3 prostate, 42 µM; in the experiment on DU-145 prostate, over 100 µM; in the experiment with HCT-116 colon it was 16.3 µM; in the experiment on MOLT-4 leukemia it was 4.83 µM; in the experiment with UACC-62 melanoma, 4.58 µM. Also, the GI50 in the experiment on A498 renal is over 100 µM. In addition, the TGI in the experiment on K-562 leukemia, in the experiment with PC-3 prostate, in the experiment on DU-145 prostate, with HCT-116 colon, in the experiment on MOLT-4 leukemia and in the experiment with UACC-62 melanoma was over 100 µM in each case. Also, in the experiment with A498 renal, the TGI was over 100 µM.
Regarding `Cc1nnc(-c2ccc(-c3nc4ccccc4o3)cc2)o1`, the GI50 with SF-295 CNS was 40.1 µM; in the experiment on K-562 leukemia it was 29.5 µM; in the experiment with PC-3 prostate, 34.7 µM; with DU-145 prostate, 42.2 µM; in the experiment on RPMI-8226 leukemia it was over 100 µM; with HCT-116 colon, over 100 µM. Also, in the experiment on UACC-62 melanoma, the GI50 is 36.8 µM. The TGI with SF-295 CNS, with K-562 leukemia, with PC-3 prostate, in the experiment on DU-145 prostate, in the experiment on RPMI-8226 leukemia and with HCT-116 colon was over 100 µM each time. The same compound displayed a TGI with UACC-62 melanoma of over 100 µM.
On to `COc1cc2c(cc1OC)-c1ncc3cc4c(cc3c1C2)OCO4`, for which the GI50 with SF-295 CNS was 46.2 µM; in the experiment with K-562 leukemia it was 19 µM; with PC-3 prostate, over 100 µM; with DU-145 prostate, 25.3 µM; with RPMI-8226 leukemia, 5.57 µM; with HCT-116 colon, 11.1 µM. Further, the results for the GI50 in the experiment with MOLT-4 leukemia and with UACC-62 melanoma were 4.14 µM and over 100 µM, respectively. Further, the TGI with SF-295 CNS was over 100 µM; in the experiment with K-562 leukemia, over 100 µM; in the experiment on PC-3 prostate, over 100 µM; with DU-145 prostate, 53.6 µM; in the experiment with RPMI-8226 leukemia it was over 100 µM; in the experiment with HCT-116 colon, 23 µM. Also, the TGI is 20.4 µM with MOLT-4 leukemia and over 100 µM in the experiment on UACC-62 melanoma.
Turning to `CN(C)CCNc1nc2ccccc2c2c(=O)c3ccccc3sc12`, the GI50 is 1.76 µM in the experiment with SF-295 CNS; 1.52 µM in the experiment with K-562 leukemia; 1.84 µM with PC-3 prostate; 1.86 µM in the experiment with MALME-3M melanoma; 2.31 µM in the experiment with DU-145 prostate; 2.42 µM with RPMI-8226 leukemia. Moreover, the GI50 in the experiment on HCT-116 colon is 1.41 µM; in the experiment with MOLT-4 leukemia it was 2.22 µM; in the experiment on UACC-62 melanoma, 1.73 µM. In addition, the TGI in the experiment on SF-295 CNS worked out at 4.03 µM; in the experiment with K-562 leukemia, 3.77 µM; in the experiment on PC-3 prostate, 4.13 µM; with MALME-3M melanoma it was 4.05 µM; in the experiment with DU-145 prostate, 6.83 µM; in the experiment with RPMI-8226 leukemia it was 6.35 µM. The TGI was found to be 2.79 µM with HCT-116 colon, 6.1 µM in the experiment on MOLT-4 leukemia and 3.68 µM in the experiment with UACC-62 melanoma.
On to `COc1c(N2CCN(Cn3c(O)c(N=NC(=O)c4ccncc4)c4cc(F)ccc43)C(C)C2)c(F)cc2c(=O)c(C(=O)O)cn(C3CC3)c12` (centres undefined), for which the GI50 is 23.9 µM with SF-295 CNS; over 50 µM in the experiment on K-562 leukemia; over 50 µM in the experiment with PC-3 prostate; 10 µM with DU-145 prostate; 15.1 µM in the experiment on RPMI-8226 leukemia; 8.24 µM in the experiment with HCT-116 colon. The GI50 in the experiment with MOLT-4 leukemia is 39.1 µM; with UACC-62 melanoma, over 50 µM; in the experiment with A498 renal, 13.3 µM. The TGI in the experiment with SF-295 CNS is over 50 µM; with K-562 leukemia it was over 50 µM; in the experiment with PC-3 prostate it was over 50 µM; with DU-145 prostate it was 32.8 µM; with RPMI-8226 leukemia it was 47.2 µM; in the experiment with HCT-116 colon it was 15 µM. The TGI in the experiment with MOLT-4 leukemia, in the experiment with UACC-62 melanoma and in the experiment on A498 renal was over 50 µM each time.

Source of the values: PubChem BioAssay (NCI).
